Reference: patent US8435980B2 (AbbVie Inc., priority 2009, dated 2013)

target: T1, Cdc7 (BEV coexpressed huCDC7/DBF4) (Homo sapiens, UniProt O00311); experiment: Cdc7 enzyme inhibition assay ([33P]ATP, biotinylated peptide substrate, FlashPlate); assay type: biochemical; conditions: Table 3; enzyme inhibition data (Ki)
T1 construct: made in house; host or cells: BEV (baculovirus expression vector) co-expression; insect cells are implied but no cell line is named
Experimental: Cdc7 (BEV coexpressed huCDC7/DBF4) is prepared internally. Cdc7 assays are conducted as follows with final concentrations as listed. […] Reactions are quenched after 1 hr by the addition of 90 μL stop buffer (50 mM EDTA, 2M NaCl). […] (Ki) for exemplary compounds.

T1 sequence (O00311 whole entry): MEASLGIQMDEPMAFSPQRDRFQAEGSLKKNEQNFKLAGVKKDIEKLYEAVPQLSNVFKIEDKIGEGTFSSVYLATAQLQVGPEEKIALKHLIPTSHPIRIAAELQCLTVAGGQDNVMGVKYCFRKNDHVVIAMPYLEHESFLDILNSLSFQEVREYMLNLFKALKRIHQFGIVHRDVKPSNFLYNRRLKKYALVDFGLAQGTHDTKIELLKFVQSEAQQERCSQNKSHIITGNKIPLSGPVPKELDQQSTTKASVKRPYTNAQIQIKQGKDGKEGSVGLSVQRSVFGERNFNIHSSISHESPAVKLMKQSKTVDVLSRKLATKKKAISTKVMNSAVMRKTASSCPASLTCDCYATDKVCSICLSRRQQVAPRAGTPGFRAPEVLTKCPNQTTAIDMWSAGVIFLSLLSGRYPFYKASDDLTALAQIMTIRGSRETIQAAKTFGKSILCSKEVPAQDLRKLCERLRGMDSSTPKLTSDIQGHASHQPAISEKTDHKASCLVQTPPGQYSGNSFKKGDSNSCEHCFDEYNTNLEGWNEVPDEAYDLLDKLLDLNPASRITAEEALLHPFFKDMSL
T1 sequence (Q9UBU7 whole entry partner): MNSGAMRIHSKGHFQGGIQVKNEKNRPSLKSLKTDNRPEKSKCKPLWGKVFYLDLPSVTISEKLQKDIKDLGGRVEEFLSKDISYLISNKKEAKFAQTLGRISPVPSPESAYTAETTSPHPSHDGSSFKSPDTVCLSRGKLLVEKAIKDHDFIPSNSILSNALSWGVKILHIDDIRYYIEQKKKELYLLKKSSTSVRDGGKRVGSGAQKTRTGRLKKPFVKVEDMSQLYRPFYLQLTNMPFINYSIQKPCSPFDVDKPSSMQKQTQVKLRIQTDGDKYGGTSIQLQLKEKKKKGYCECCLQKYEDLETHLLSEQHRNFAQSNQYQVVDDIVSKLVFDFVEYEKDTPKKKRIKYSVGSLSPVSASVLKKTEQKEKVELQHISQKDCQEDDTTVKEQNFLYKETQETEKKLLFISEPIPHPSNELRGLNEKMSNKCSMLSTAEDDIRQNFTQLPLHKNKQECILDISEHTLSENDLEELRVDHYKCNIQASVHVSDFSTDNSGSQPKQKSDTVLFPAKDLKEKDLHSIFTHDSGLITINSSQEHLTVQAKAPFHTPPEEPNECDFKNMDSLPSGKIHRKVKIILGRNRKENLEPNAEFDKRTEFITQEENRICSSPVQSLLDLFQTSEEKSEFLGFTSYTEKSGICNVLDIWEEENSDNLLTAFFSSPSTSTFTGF

| Ki | Compound |
| --- | --- |
| < 10 nM | COc1cnc2[nH]cc(-c3cc(Cl)nc(NC4CCC(CC5CCC(NC(=O)C6CC6)CC5)CC4)c3)c2c1 (stereo not shown) [Example 240, N-[4-[(4-{[6-chloro-4-(5-methoxy-1H-pyrrolo[2,3-b]pyridin-3-yl)pyridin-2-yl]amino}cyclohexyl)methyl]cyclohexyl]cyclopropanecarboxamide] |
| 10 to 100 nM | C#CCOc1cnc2[nH]cc(-c3cc(Cl)nc(N[C@H]4CC[C@H](N)CC4)c3)c2c1 [Example 241, (trans)-N1-(6-chloro-4-(5-(prop-2-ynyloxy)-1H-pyrrolo[2,3-b]pyridin-3-yl)pyridin-2-yl)cyclohexane-1,4-diamine] |
| < 10 nM | O=C(NCc1ccccn1)c1cnc2[nH]cc(-c3cc(Cl)nc(NC4CCCCC4)c3)c2c1 [Example 242, 3-[2-chloro-6-(cyclohexylamino)pyridin-4-yl]-N-(pyridin-2-ylmethyl)-1H-pyrrolo[2,3-b]pyridine-5-carboxamide] |
| < 10 nM | Clc1cc(-c2c[nH]c3ncc(-c4cncnc4)cc23)cc(NC2CCCCC2)n1 [Example 243, 6-chloro-N-cyclohexyl-4-[5-(pyrimidin-5-yl)-1H-pyrrolo[2,3-b]pyridin-3-yl]pyridin-2-amine] |
| < 10 nM | CCCCS(=O)(=O)N[C@H]1CC[C@H](Nc2cc(-c3c[nH]c4ncc(OC)cc34)cc(Cl)n2)CC1 [Example 244, N-(trans-4-{[6-chloro-4-(5-methoxy-1H-pyrrolo[2,3-b]pyridin-3-yl)pyridin-2-yl]amino}cyclohexyl)butane-1-sulfonamide] |
| < 10 nM | Nc1ccc(-c2cnc3[nH]cc(-c4cc(Cl)nc(NC5CCCCC5)c4)c3c2)cn1 [Example 245, 4-[5-(6-aminopyridin-3-yl)-1H-pyrrolo[2,3-b]pyridin-3-yl]-6-chloro-N-cyclohexylpyridin-2-amine] |
| < 10 nM | COc1cnc2[nH]cc(-c3cc(Cl)nc(N[C@H]4CC[C@H](NC(=O)CN)CC4)c3)c2c1 [Example 246, N-(trans-4-{[6-chloro-4-(5-methoxy-1H-pyrrolo[2,3-b]pyridin-3-yl)pyridin-2-yl]amino}cyclohexyl)glycinamide] |
| < 10 nM | COc1ccnc2[nH]cc(-c3cc(Cl)nc(NC4CCCCC4)c3)c12 [Example 247, 6-chloro-N-cyclohexyl-4-(4-methoxy-1H-pyrrolo[2,3-b]pyridin-3-yl)pyridin-2-amine] |
| < 10 nM | CCNC(=O)Nc1cnc2[nH]cc(-c3cc(Cl)nc(NC4CCCCC4)c3)c2c1 [Example 248, 1-{3-[2-chloro-6-(cyclohexylamino)pyridin-4-yl]-1H-pyrrolo[2,3-b]pyridin-5-yl}-3-ethylurea] |
| < 10 nM | O=C(N[C@H]1CC[C@H](Nc2cc(-c3c[nH]c4ncccc34)cc(Cl)n2)CC1)C1CN(Cc2ccncc2)C1 [Example 249, N-(trans-4-{[6-chloro-4-(1H-pyrrolo[2,3-b]pyridin-3-yl)pyridin-2-yl]amino}cyclohexyl)-1-(pyridin-4-ylmethyl)azetidine-3-carboxamide] |
| < 10 nM | O=C(N[C@H]1CC[C@H](Nc2cc(-c3c[nH]c4ncccc34)cc(Cl)n2)CC1)C1CN(C2CCNCC2)C1 [Example 250, N-(trans-4-{[6-chloro-4-(1H-pyrrolo[2,3-b]pyridin-3-yl)pyridin-2-yl]amino}cyclohexyl)-1-(piperidin-4-yl)azetidine-3-carboxamide] |
| < 10 nM | COc1cnc2[nH]cc(-c3cc(Cl)nc(N[C@H]4CC[C@H](NC(=O)CNC5CCCCC5)CC4)c3)c2c1 [Example 251, N-(trans-4-{[6-chloro-4-(5-methoxy-1H-pyrrolo[2,3-b]pyridin-3-yl)pyridin-2-yl]amino}cyclohexyl)-N^2-cyclohexylglycinamide] |
| < 10 nM | COc1cnc2[nH]cc(-c3cc(Cl)nc(NC4CCC(C5CCN(C6CCC6)CC5)CC4)c3)c2c1 (stereo not shown) [Example 252, 6-chloro-N-[4-(1-cyclobutylpiperidin-4-yl)cyclohexyl]-4-(5-methoxy-1H-pyrrolo[2,3-b]pyridin-3-yl)pyridin-2-amine] |
| < 10 nM | COc1cnc2[nH]cc(-c3cc(Cl)nc(N[C@H]4CC[C@H](NS(=O)(=O)C5CCCCC5)CC4)c3)c2c1 [Example 253, N-(trans-4-{[6-chloro-4-(5-methoxy-1H-pyrrolo[2,3-b]pyridin-3-yl)pyridin-2-yl]amino}cyclohexyl)cyclohexanesulfonamide] |
| < 10 nM | COc1cnc2[nH]cc(-c3cc(Cl)nc(N[C@H]4CC[C@H](NC(=O)CN5CCOCC5)CC4)c3)c2c1 [Example 254, N-(trans-4-{[6-chloro-4-(5-methoxy-1H-pyrrolo[2,3-b]pyridin-3-yl)pyridin-2-yl]amino}cyclohexyl)-2-(morpholin-4-yl)acetamide] |
| < 10 nM | CC(=O)Nc1cccc(-c2cnc3[nH]cc(-c4cc(Cl)nc(NC5CCCCC5)c4)c3c2)c1 [Example 255, N-(3-{3-[2-chloro-6-(cyclohexylamino)pyridin-4-yl]-1H-pyrrolo[2,3-b]pyridin-5-yl}phenyl)acetamide] |
| < 10 nM | CS(=O)(=O)Nc1cnc2[nH]cc(-c3cc(Cl)nc(NC4CCCCC4)c3)c2c1 [Example 256, N-{3-[2-chloro-6-(cyclohexylamino)pyridin-4-yl]-1H-pyrrolo[2,3-b]pyridin-5-yl}methanesulfonamide] |

| Ki | Compound |
| --- | --- |
| < 10 nM | COc1cnc2[nH]cc(-c3cc(Cl)nc(NC4CCC(CC5CCC(NC(=O)c6cccnc6)CC5)CC4)c3)c2c1 (stereo not shown) [Example 257, N-{4-[(4-{[6-chloro-4-(5-methoxy-1H-pyrrolo[2,3-b]pyridin-3-yl)pyridin-2-yl]amino}cyclohexyl)methyl]cyclohexyl}pyridine-3-carboxamide] |
| < 10 nM | COc1cnc2[nH]cc(-c3cc(Cl)nc(N[C@H]4CC[C@H](NC(=O)CNCC(C)(C)C)CC4)c3)c2c1 [Example 258, N-(trans-4-{[6-chloro-4-(5-methoxy-1H-pyrrolo[2,3-b]pyridin-3-yl)pyridin-2-yl]amino}cyclohexyl)-N^2-(2,2-dimethylpropyl)glycinamide] |
| < 10 nM | COc1cnc2[nH]cc(-c3cc(Cl)nc(NC4CCC(CC5CCC(N(C)C)CC5)CC4)c3)c2c1 (stereo not shown) [Example 259, 6-chloro-N-(4-{[4-(dimethylamino)cyclohexyl]methyl}cyclohexyl)-4-(5-methoxy-1H-pyrrolo[2,3-b]pyridin-3-yl)pyridin-2-amine] |
| < 10 nM | COc1cnc2[nH]cc(-c3cc(Cl)nc(NC4CCCC(NS(=O)(=O)C5CC5)C4)c3)c2c1 (stereo not shown) [Example 260, N-(3-{[6-chloro-4-(5-methoxy-1H-pyrrolo[2,3-b]pyridin-3-yl)pyridin-2-yl]amino}cyclohexyl)cyclopropanesulfonamide] |
| < 10 nM | COc1cnc2[nH]cc(-c3cc(Cl)nc(NC4CCCC(NC(C)=O)C4)c3)c2c1 (stereo not shown) [Example 261, N-(3-{[6-chloro-4-(5-methoxy-1H-pyrrolo[2,3-b]pyridin-3-yl)pyridin-2-yl]amino}cyclohexyl)acetamide] |
| < 10 nM | COc1cnc2[nH]cc(-c3cc(Cl)nc(NC4CCCC(NS(=O)(=O)c5cccs5)C4)c3)c2c1 (stereo not shown) [Example 262, N-(3-{[6-chloro-4-(5-methoxy-1H-pyrrolo[2,3-b]pyridin-3-yl)pyridin-2-yl]amino}cyclohexyl)thiophene-2-sulfonamide] |
| < 10 nM | COc1cnc2[nH]cc(-c3cc(Cl)nc(NC4CCCC(NC(=O)CN5CCCC5)C4)c3)c2c1 (stereo not shown) [Example 263, N-(3-{[6-chloro-4-(5-methoxy-1H-pyrrolo[2,3-b]pyridin-3-yl)pyridin-2-yl]-amino}cyclohexyl)-2-(pyrrolidin-1-yl)acetamide] |
| < 10 nM | Clc1cc(-c2c[nH]c3ncccc23)nc(NCC2CCCO2)n1 (stereo not shown) [Example 265, 4-chloro-6-(1H-pyrrolo[2,3-b]pyridin-3-yl)-N-(tetrahydrofuran-2-ylmethyl)pyrimidin-2-amine] |
| < 10 nM | Clc1cc(-c2c[nH]c3ncccc23)nc(NCc2ccncc2)n1 [Example 266, 4-chloro-N-(pyridin-4-ylmethyl)-6-(1H-pyrrolo[2,3-b]pyridin-3-yl)pyrimidin-2-amine] |
| < 10 nM | Clc1cc(-c2c[nH]c3ncccc23)nc(NCc2cccnc2)n1 [Example 267, 4-chloro-N-(pyridin-3-ylmethyl)-6-(1H-pyrrolo[2,3-b]pyridin-3-yl)pyrimidin-2-amine] |
| < 10 nM | Clc1cc(-c2c[nH]c3ncccc23)nc(NCc2ccccn2)n1 [Example 268, 4-chloro-N-(pyridin-2-ylmethyl)-6-(1H-pyrrolo[2,3-b]pyridin-3-yl)pyrimidin-2-amine] |
| < 10 nM | CN(C)c1nc(Cl)cc(-c2c[nH]c3ncccc23)n1 [Example 269, 4-chloro-N,N-dimethyl-6-(1H-pyrrolo[2,3-b]pyridin-3-yl)pyrimidin-2-amine] |
| < 10 nM | O=C(N[C@H]1CC[C@H](Nc2nc(Cl)cc(-c3c[nH]c4ncccc34)n2)CC1)C1CC1 [Example 271, N-(trans-4-{[4-chloro-6-(1H-pyrrolo[2,3-b]pyridin-3-yl)pyrimidin-2-yl]amino}cyclohexyl)cyclopropanecarboxamide] |
| < 10 nM | O=C(NC1CCCC(Nc2nc(Cl)cc(-c3c[nH]c4ncccc34)n2)C1)C1CC1 (stereo not shown) [Example 272, N-(3-{[4-chloro-6-(1H-pyrrolo[2,3-b]pyridin-3-yl)pyrimidin-2-yl]amino}cyclohexyl)cyclopropanecarboxamide] |
| < 10 nM | Clc1cc(-c2c[nH]c3ncccc23)nc(NC2CCCC(NC3CCC3)C2)n1 (stereo not shown) [Example 274, N-[4-chloro-6-(1H-pyrrolo[2,3-b]pyridin-3-yl)pyrimidin-2-yl]-N′-cyclobutylcyclohexane-1,3-diamine] |
| < 10 nM | Clc1cc(-c2c[nH]c3ncccc23)nc(N[C@H]2CC[C@H](NC3CCC3)CC2)n1 [Example 275, trans-N-[4-chloro-6-(1H-pyrrolo[2,3-b]pyridin-3-yl)pyrimidin-2-yl]-N′-cyclobutylcyclohexane-1,4-diamine] |
| < 10 nM | COCCNc1nc(Cl)cc(-c2c[nH]c3ncccc23)n1 [Example 279, 4-chloro-N-(2-methoxyethyl)-6-(1H-pyrrolo[2,3-b]pyridin-3-yl)pyrimidin-2-amine] |
